Measurements taken from ChEMBL document CHEMBL6092193, “Identification of furo[2,3-d]pyrimidin-4-ylsulfanyl-1,3,4-thiadiazole derivatives as novel FLT3-ITD inhibitors” (Eur J Med Chem, 2024).
Activity calls are given as the source filed them. The calls are words filed in the database; no cut-off is given here.

Key:
HL-60 [1] = test: Induction of cell cycle arrest in human HL-60 cells assessed as proportion of cells at G1 phase at 16 nM incubated for 24 hrs by PI staining based flow cytometry (reference value: 49.36%); format: functional
HL-60 [2] = test: Induction of cell cycle arrest in human HL-60 cells assessed as proportion of cells at subG1 phase at 2000 nM incubated for 24 hrs by PI staining based flow cytometry (reference value: 6.94%); format: functional
HL-60 [3] = test: Induction of cell cycle arrest in human HL-60 cells assessed as proportion of cells at G1 phase at 80 nM incubated for 24 hrs by PI staining based flow cytometry (reference value: 49.36%); format: functional
MV4-11 [4] = test: Induction of cell cycle arrest in human MV4-11 cells assessed as proportion of cells at subG1 phase at 2000 nM incubated for 24 hrs by PI staining based flow cytometry (reference value: 10.44%); format: functional
[5] = target: Receptor-type tyrosine-protein kinase FLT3 (Homo sapiens) (UniProt P36888); test: Inhibition of FLT3 in human MV4-11 cells assessed as inhibition of ERK1/2 phosphorylation at Thr202/Tyr204 residues incubated for 1 hr by immunoblot analysis; format: cell-based; conditions: dose lower […], dose upper 2000.0 nM
MV4-11 [6] = test: Induction of cell cycle arrest in human MV4-11 cells assessed as proportion of cells at S phase at 3.2 nM incubated for 24 hrs by PI staining based flow cytometry (reference value: 25.97%); format: functional
MV4-11 [7] = test: Induction of cell cycle arrest in human MV4-11 cells assessed as proportion of cells at subG1 phase at 400 nM incubated for 24 hrs by PI staining based flow cytometry (reference value: 10.44%); format: functional
MV4-11 [8] = format: functional, Homo sapiens; conditions: dose 16 nM; time 24 hrs
MV4-11 [9] = test: Induction of cell cycle arrest in human MV4-11 cells assessed as proportion of cells at S phase at 400 nM incubated for 24 hrs by PI staining based flow cytometry (reference value: 25.97%); format: functional
HL-60 [10] = test: Induction of cell cycle arrest in human HL-60 cells assessed as proportion of cells at S phase at 3.2 nM incubated for 24 hrs by PI staining based flow cytometry (reference value: 36.12%); format: functional
K562 = test: cells; conditions: Homo sapiens, K562, 72 h
Description: Antiproliferative activity against FLT3-independent human K562 cells assessed as inhibition of cell growth incubated for 72 hrs by resazurin dye based fluorescence analysis

MV4-11 [11] = test: Induction of cell cycle arrest in human MV4-11 cells assessed as proportion of cells at subG1 phase at 3.2 nM incubated for 24 hrs by PI staining based flow cytometry (reference value: 10.44%); format: functional
[12] = test system: Receptor-type tyrosine-protein kinase FLT3 (Homo sapiens), P36888 [UNDEFINED MUTATION]; test: Inhibition of FLT3-ITD mutant (unknown origin) expressed in mouse BaF3 cells assessed as inhibition of ERK1/2 phosphorylation at Thr202/Tyr204 residues at 16 to 2000 nM incubated for 2 hrs by immunoblot analysis; format: cell-based; conditions: dose lower […], dose upper 2000.0 nM
[13] = target: Receptor-type tyrosine-protein kinase FLT3 (Homo sapiens, UniProt P36888, ITD); test: biochemical; format: cell-based, Sf9
MOLM-13 = test: cells; conditions: Homo sapiens, MOLM-13, 72 h
HL-60 [14] = test: Induction of cell cycle arrest in human HL-60 cells assessed as proportion of cells at G1 phase at 400 nM incubated for 24 hrs by PI staining based flow cytometry (reference value: 49.36%); format: functional
HL-60 [15] = test: Induction of cell cycle arrest in human HL-60 cells assessed as proportion of cells at G2/M phase at 80 nM incubated for 24 hrs by PI staining based flow cytometry (reference value: 14.52%); format: functional
MV4-11 [16] = test: Induction of cell cycle arrest in human MV4-11 cells assessed as proportion of cells at G2/M phase at 400 nM incubated for 24 hrs by PI staining based flow cytometry (reference value: 10%); format: functional
BaF3 [17] = test: cells; conditions: Mus musculus, BaF3, 72 h
BaF3 [18] = test: cells; conditions: Mus musculus, BaF3, 72 h; remark: listed apart in the source
Description: Antiproliferative activity against mouse BaF3 cells assessed as inhibition of cell growth incubated for 72 hrs by resazurin dye based fluorescence analysis

[19] = target: T1, Receptor-type tyrosine-protein kinase FLT3 (Homo sapiens, UniProt P36888)
T1 sequence (P36888 whole entry): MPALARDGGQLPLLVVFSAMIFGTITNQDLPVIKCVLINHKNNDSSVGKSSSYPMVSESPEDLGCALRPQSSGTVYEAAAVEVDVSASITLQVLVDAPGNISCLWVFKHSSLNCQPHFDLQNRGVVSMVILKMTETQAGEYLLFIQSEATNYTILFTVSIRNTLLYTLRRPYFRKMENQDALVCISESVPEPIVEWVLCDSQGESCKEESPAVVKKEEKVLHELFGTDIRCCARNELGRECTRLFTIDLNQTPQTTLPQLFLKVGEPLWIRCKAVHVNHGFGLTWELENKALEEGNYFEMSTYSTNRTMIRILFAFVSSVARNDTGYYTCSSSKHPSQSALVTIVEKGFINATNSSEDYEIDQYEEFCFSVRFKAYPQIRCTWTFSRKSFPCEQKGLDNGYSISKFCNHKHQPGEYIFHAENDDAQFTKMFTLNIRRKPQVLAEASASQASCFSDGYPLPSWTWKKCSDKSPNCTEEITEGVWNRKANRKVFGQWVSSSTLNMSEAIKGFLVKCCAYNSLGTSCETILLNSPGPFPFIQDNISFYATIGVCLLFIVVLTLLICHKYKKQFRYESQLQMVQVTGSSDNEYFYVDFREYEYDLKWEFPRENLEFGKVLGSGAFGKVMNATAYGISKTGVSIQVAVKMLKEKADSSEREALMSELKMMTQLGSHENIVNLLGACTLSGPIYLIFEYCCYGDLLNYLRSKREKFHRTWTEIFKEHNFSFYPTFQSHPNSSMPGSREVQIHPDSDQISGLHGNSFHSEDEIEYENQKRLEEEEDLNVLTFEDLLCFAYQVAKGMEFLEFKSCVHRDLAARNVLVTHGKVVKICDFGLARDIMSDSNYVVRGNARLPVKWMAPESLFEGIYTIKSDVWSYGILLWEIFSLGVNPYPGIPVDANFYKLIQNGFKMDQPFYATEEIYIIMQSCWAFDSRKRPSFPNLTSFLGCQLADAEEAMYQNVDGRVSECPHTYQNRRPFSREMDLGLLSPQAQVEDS
Description: Inhibition of NanoLuc-fused FLT3 (unknown origin) transfected in HEK293 cells incubated for 2 hrs by NanoBRET target engagement assay

MV4-11 [20] = test: Induction of cell cycle arrest in human MV4-11 cells assessed as proportion of cells at G2/M phase at 80 nM incubated for 24 hrs by PI staining based flow cytometry (reference value: 10%); format: functional
[21] = test system: Receptor-type tyrosine-protein kinase FLT3 (Homo sapiens), P36888 [UNDEFINED MUTATION]; format: cell-based; conditions: BaF3, dose lower […], dose upper 2000.0 nM, time 2.0 hrs
HL-60 [22] = test: Induction of cell cycle arrest in human HL-60 cells assessed as proportion of cells at G2/M phase at 3.2 nM incubated for 24 hrs by PI staining based flow cytometry (reference value: 14.52%); format: functional
MV4-11 [23] = format: functional, Homo sapiens; conditions: dose 400 nM; time 24 hrs

SMILES: COc1ccc(NC(=O)Nc2nnc(Sc3ncnc4oc(-c5ccccc5)cc34)s2)cc1
- Activity (HL-60 [1]): 48.76%
- Activity (HL-60 [2]): 7.81%
- Activity (HL-60 [3]): 49.29%
- Activity (MV4-11 [4]): 38.33%
- inhibition [5]: Dose-dependent-effect
- Activity (MV4-11 [6]): 20.86%
- Activity (MV4-11 [7]): 32.95%
- Activity (MV4-11 [8]): 89.29%
- Activity (MV4-11 [9]): 4.48%
- Activity (HL-60 [10]): 37.01%
- GI50 (K562): > 10000 nM
- Activity (MV4-11 [11]): 12.84%
- inhibition [12]: Active
- IC50 [13]: 31 nM
- GI50 (MOLM-13): 63 nM
- Activity (HL-60 [14]): 50.35%
- Activity (HL-60 [15]): 13.68%
- Activity (MV4-11 [16]): 1.43%
- GI50 (BaF3 [17]): 277 nM
- GI50 (BaF3 [18]): > 10000 nM
- IC50 [19]: 174 nM
- Activity (MV4-11 [20]): 1.23%
- inhibition [21]: Active
- Activity (HL-60 [22]): 13.04%
- Activity (MV4-11 [23]): 94.09%
